Reference: publication PMC10584170, “Machine learning-based phenotypic imaging to characterise the targetable biology of Plasmodium falciparum male gametocytes for the development of transmission-blocking antimalarials” (PLOS Pathogens, 2023)

Columns and labels:
[1] = test system: P. falciparum male gametocytes; assay: PhIDDLI timecourse assay, compound added at timepoints after triggering male gametogenesis; assay type: cell-based, Plasmodium falciparum NF54; conditions: for cells with late phenotype / cells forming exflagellation centres: compound added at 10 min post-induction; for cells forming exflagellation centres: DMSO control 17.2%; for arrest of gametogenesis: compound added concurrent with triggering gametogenesis
HepG2 cells [2] = conditions: cited from earlier work; for FGAA TOX50 HepG2: HepG2 value reported with the FGAA screen, ref Miguel-Blanco et al 2017; for ODA TOX50 HepG2: HepG2 value reported with the ODA screen, ref Delves et al 2019
[3] = test system: P. falciparum male gametocytes; assay: PhIDDLI screening assay, 24 h preincubation at 10xIC50, tubulin/DAPI imaging of male gametogenesis; assay type: cell-based, Plasmodium falciparum NF54; conditions: approximately 10xIC50, fixed 20 min post-induction
Protocol: Mature gametocytes were treated for 24h with approximately 10xIC50 of test compounds or DMSO as a solvent control. Male gametogenesis was then induced by lowering the temperature from 37°C to ~20°C and adding xanthurenic acid. 20min later, when male gametogenesis (exflagellation) could be expected to peak, all samples were fixed. A sample of non-induced DMSO-treated gametocytes was fixed with 4% paraformaldehyde to provide an unactivated gametocyte control for comparison. The cells were then processed for immunofluorescence using an antibody against alpha-tubulin II and DNA staining with 4′,6-diamidino-2-phenylindole (DAPI) and visualised by fluorescence microscopy. Tubulin-bright cells from each treated sample were imaged and captured at random.
Cells were identified using a semi-automated pipeline established in the ICY BioImageAnalysis (https://icy.bioimageanalysis.org/) protocols module. Images and accompanying bounding boxes representing the outlines of identified cells were then passed to the PhIDDLI pipeline. PhIDDLI consists of several open source image processing and AI/ML modules connected for seamless processing, clustering and visualisation of cellular phenotypes (Fig 3A). […] To focus on the overall cellular phenotype rather than potentially confounding variable immunostaining intensities between experimental replicates, cells were transformed so that the range of staining intensities for each channel were normalised to fall between a 0–255 pixel intensity value. Then, using the Albumentations module (https://albumentations.ai/) to augment the dataset and control for cells in different orientations, each extracted cell image was rotated 90, 180 and 270 degrees and mirrored so that each cell was represented eight different times in the dataset. The augmented images were then passed to the EffcientNet-B1 module (https://github.com/tensorflow/tpu/tree/master/models/official/efficientnet) (a pretrained neural network developed for image processing) which extracted 1,000 distinct numerical features from each individual cell image. The EfficientNet-B1 was selected from amongst the other EfficientNet models due to its input image size (240 pixels) best matching the size of the individual cell images in the dataset, therefore ensuring maximal input data whilst allowing acceptable computation time on a desktop computer. […]
Mature gametocyte cultures were divided into 100 μl “microcultures” in pre-warmed 1.5 ml tubes also containing 100 μl complete culture medium with test compounds at a final concentration of 10xIC50 or 0.5% DMSO as a solvent control. Tubes were gassed and incubated at 37°C for 24 h. The entire compound library was screened once, spread over four different experiments, each with two DMSO control tubes. An 8% formaldehyde solution was prepared by diluting 16% methanol-free formaldehyde in an equal volume of phosphate-buffered saline (PBS). In each experiment, one DMSO control tube was fixed with equal volume of 8% formaldehyde (4% final concentration) at 37°C to provide an “unactivated” gametocyte control. Gametogenesis was then triggered in the remaining DMSO control tube and all compound tubes by adding 10 μl ookinete medium, and they were immediately incubated at room temperature. After 20 min (when exflagellation is maximal), all remaining tubes were fixed for 30 min.
100 μl of the fixed cell suspensions were added to wells of a 24 well plate containing 1ml PBS and a poly-l-lysine-coated glass coverslip.

HepG2 cells [4] = assay: HepG2 cytotoxicity counter-screen; conditions: for Mean TOX: mean of the HepG2 TOX50 values

| SMILES | cells with late phenotype [1] | cells forming exflagellation centres [1] | arrest of gametogenesis [1] | FGAA TOX50 HepG2 (HepG2 cells [2]) | Cellular phenotype of male gametocytes [3] | Mean TOX (HepG2 cells [4]) | ODA TOX50 HepG2 (HepG2 cells [2]) | DGFA Tox50 HepG2 (HepG2 cells [4]; HepG2 value reported with the DGFA screen) |
| --- | --- | --- | --- | --- | --- | --- | --- | --- |
| CC(C)(CNC(=O)[C@H]1CCCCN1)c1nc(-c2ccc(Cl)c(O)c2)c(-c2ccncc2)[nH]1.Cl [TC04] | 86.3% | 0.4% | near total arrest | 28.96 µM | unactivated phenotype consistent with total arrest of gametogenesis | 40.64 µM |  |  |
| CC(C)(CN)c1nc(-c2ccc(Br)c(O)c2)c(-c2ccncc2)[nH]1.Cl [TC13] | 83.3% | 2.7% | near total arrest | 45.82 µM | unactivated phenotype consistent with total arrest of gametogenesis | 64.38 µM | 47.315 µM | 100 µM |
| Cl.NCC1(c2nc(-c3ccc(Cl)c(O)c3)c(-c3ccncc3)[nH]2)CCCCC1 [TC41] | 84.9% | 1.1% | near total arrest | 11.9 µM | unactivated phenotype consistent with total arrest of gametogenesis | 22.85 µM | 46.774 µM |  |
